Results: patent EP4644375A1, “SUBSTITUTED HYDROQUINOLINES FOR THE TREATMENT OF GLIOBLASTOMA MULTIFORME” (Molius Saglik Teknolojileri Anonim Sirketi, priority 2024, dated 2025)

What was measured:
[1] = tested on: U138-MG human glioma cell; assay: Cell proliferation analysis (MTT); assay type: cell-based; conditions: 10 µM, two days, MTT; for activity at 10 µM / inhibition at 10 µM: Homo sapiens, 48 h
Method: (§1) U87-MG and U138-MG human glioma cell, were incubated with 10% fetal bovine serum (FBS) (Gibco, 10500-064), 1% L-glutamine (Gibco, 25030-024), in a humidified incubator with 5% CO2 at 37 °C. The cells were contained in DMEM High Glucose (Gibco, 41966-029) supplemented with 1% penicillin-streptomycin (P/S) (Gibco 15140-122) solution. The cytotoxic effects of the target compounds on U87-MG and U138-MG cell lines were assessed using the MTT (Thiazolyl Blue Tetrazolium Bromide) method. 7×10^3 cells were seeded into a 96-well plate in 100 µl DMEM High Glucose 10% FBS and 1% P/S. 24 hours after cell incubation, each target compound was added at a dose of 10 µM and the drug treatment was carried out for two days. After the incubation period, 10 µL of MTT solution was added to each well (5 mg/ml in PBS). After 2 hours, MTT solutions were removed from the wells. Then, 100 µl DMSO was added, and mixed to dissolve the formazan crystals. Cell proliferation was analysed by measuring the absorbance of dissolved formazan at a wavelength of 570 nm.
(§2) IC50 values were determined using the same method as above wherein the cells were treated with the target compounds at different doses.

U87-MG human glioma cell = assay: Cell proliferation analysis (MTT); assay type: cell-based; conditions: 10 µM, two days, MTT; for activity at 10 µM / inhibition at 10 µM: Homo sapiens, U-87 MG, 48 h
Method: as §1, §2

`O=C(COc1ccc2c(c1)CCC(=O)N2)N/N=C1\C(=O)Nc2ccc(F)cc21` [TR-G050, (Z)-N'-(5-fluoro-2-oxoindolin-3-ylidene)-2-((2-oxo-1,2,3,4-tetrahydroquinolin-6-yl)oxy)acetohydrazide] gave an activity at 10 µM [1] of 54%, an inhibition at 10 µM [1] of 46% and an activity at 10 µM (U87-MG human glioma cell) of 69%. It also gave an inhibition at 10 µM (U87-MG human glioma cell) of 31%.

Molecule `O=C1CCc2cc(OC(=O)c3cc(C(F)(F)F)ccc3F)ccc2N1` [TR-G036, 2-oxo-1,2,3,4-tetrahydroquinolin-6-yl 2fluoro-5-(trifluoromethyl)benzoate] has an activity at 10 µM [1] of 81%, an inhibition at 10 µM [1] of 19% and an activity at 10 µM (U87-MG human glioma cell) of 68%. For the same molecule, the inhibition at 10 µM (U87-MG human glioma cell) was 32%.

For `O=C1CCc2cc(OCCCCc3nnnn3C3CCCCC3)ccc2N1Cc1ccccc1` [TR-G110, 1-benzyl-6-(4-(1-cyclohexyl-1H-tetrazol-5-yl)butoxy)-3,4-dihydroquinolin-2(1H)-one], the activity at 10 µM [1] was 69%, the inhibition at 10 µM [1] was 31% and the activity at 10 µM (U87-MG human glioma cell) was 58%. It also gave an inhibition at 10 µM (U87-MG human glioma cell) of 42%.

`O=C1CCc2cc(OC(=O)Nc3ccccc3)ccc2N1` [TR-G131, 2-oxo-1,2,3,4-tetrahydroquinolin-6-yl phenylcarbamate] gave an activity at 10 µM [1] of 54%, an inhibition at 10 µM [1] of 46% and an activity at 10 µM (U87-MG human glioma cell) of 79%. It also gave an inhibition at 10 µM (U87-MG human glioma cell) of 21%.

With `CS(=O)(=O)Oc1ccc2c(c1)CCC(=O)N2` [TR-G057, 2-oxo-1,2,3,4-tetrahydroquinolin-6-yl methanesulfonate] the activity at 10 µM [1] was 99%, the inhibition at 10 µM [1] was 1% and the activity at 10 µM (U87-MG human glioma cell) was 85%. For the same molecule, the inhibition at 10 µM (U87-MG human glioma cell) was 15%.

Molecule `CCOC(=O)CCn1cc(COc2ccc3c(c2)CCC(=O)N3)nn1` [TR-G079, ethyl 3-(4-(((2-oxo-1,2,3,4-tetrahydroquinolin-6-yl)oxy)methyl)-1H-1,2,3-triazol-1-yl)propanoate] has an activity at 10 µM [1] of 112%, an inhibition at 10 µM [1] of -12% and an activity at 10 µM (U87-MG human glioma cell) of 94%. It also gave an inhibition at 10 µM (U87-MG human glioma cell) of 6%.

With `O=C1CCc2cc(OC(=O)c3cccc4ccccc34)ccc2N1` [TR-G011, 2-oxo-1,2,3,4-tetrahydroquinolin-6-yl 1-naphthoate] the activity at 10 µM [1] was 60%, the inhibition at 10 µM [1] was 40% and the activity at 10 µM (U87-MG human glioma cell) was 76%. It also gave an inhibition at 10 µM (U87-MG human glioma cell) of 24%.

In the case of `CCCn1cc(COc2ccc3c(c2)CCC(=O)N3)nn1` [TR-G082, 6-((1-propyl-1H-1,2,3-triazol-4-yl)methoxy)-3,4-dihydroquinolin-2(1H)-one], the activity at 10 µM [1] is reported as 89%, the inhibition at 10 µM [1] is reported as 11% and the activity at 10 µM (U87-MG human glioma cell) is reported as 74%. For the same molecule, the inhibition at 10 µM (U87-MG human glioma cell) was 26%.

Molecule `O=C(OCCCCOc1ccc2c(c1)CCC(=O)N2CCCCOC(=O)c1ccccc1)c1ccccc1` [TR-G013A, 4-(6-(4-(benzoyloxy)butoxy)-2-oxo-3,4-dihydroquinolin-1(2H)-yl)butyl benzoate] has an activity at 10 µM [1] of 53%, an inhibition at 10 µM [1] of 47% and an activity at 10 µM (U87-MG human glioma cell) of 46%. It also gave an inhibition at 10 µM (U87-MG human glioma cell) of 54%.

`O=C1CCc2cc(OCCOCc3ccccc3)ccc2N1` [TR-G001, 6-(2-(benzyloxy)ethoxy)-3,4-dihydroquinolin-2(1H)-one] was tested, and the “Cell Proliferation (%)” value [1] was 88%, the inhibition at 10 µM [1] was 12% and the “Cell Proliferation (%)” value (U87-MG human glioma cell) was 78%. The inhibition at 10 µM (U87-MG human glioma cell) was 22%.

`Cc1[nH]c2ccccc2c1/C=N/NC(=O)COc1ccc2c(c1)CCC(=O)N2` [TR-G027, (E)-N'-((2-methyl-1H-indol-3-yl)methylene)-2-((2-oxo-1,2,3,4-tetrahydroquinolin-6-yl)oxy)acetohydrazide] showed an activity at 10 µM [1] of 54%, an inhibition at 10 µM [1] of 46% and an activity at 10 µM (U87-MG human glioma cell) of 66%. It also gave an inhibition at 10 µM (U87-MG human glioma cell) of 34%.

Work on `O=C1CCc2cc(OCc3cc(-c4ccc(F)cc4)no3)ccc2N1` [TR-G142, 6-((3-(4-fluorophenyl)isoxazol-5-yl)methoxy)-3,4-dihydroquinolin-2(1H)-one] yielded an activity at 10 µM [1] of 70%, an inhibition at 10 µM [1] of 30% and an activity at 10 µM (U87-MG human glioma cell) of 55%. For the same molecule, the inhibition at 10 µM (U87-MG human glioma cell) was 46%.

For `O=C(COc1ccc2c(c1)CCC(=O)N2)N/N=C1\C(=O)Nc2ccccc21` [TR-G038, (Z)-2-((2-oxo-1,2,3,4-tetrahydroquinolin-6-yl)oxy)-N'-(2-oxoindolin-3-ylidene)acetohydrazide], the activity at 10 µM [1] was 95%, the inhibition at 10 µM [1] was 5% and the activity at 10 µM (U87-MG human glioma cell) was 71%. For the same molecule, the inhibition at 10 µM (U87-MG human glioma cell) was 30%.

In the case of `NC(=O)COCCOc1ccc2c(c1)CCC(=O)N2` [TR-G126, 2-(2-((2-oxo-1,2,3,4-tetrahydroquinolin-6-yl)oxy)ethoxy)acetamide], the activity at 10 µM [1] is reported as 97%, the inhibition at 10 µM [1] is reported as 3% and the activity at 10 µM (U87-MG human glioma cell) is reported as 70%. For the same molecule, the inhibition at 10 µM (U87-MG human glioma cell) was 30%.

`C=CC(=O)Oc1ccc2c(c1)CCC(=O)N2` [TR-G039, 2-oxo-1,2,3,4-tetrahydroquinolin-6-yl acrylate] gave an activity at 10 µM [1] of 75%, an inhibition at 10 µM [1] of 25% and an activity at 10 µM (U87-MG human glioma cell) of 59%. It also gave an inhibition at 10 µM (U87-MG human glioma cell) of 41%.

`COc1ccc(/C=N/NC(=O)COc2ccc3c(c2)CCC(=O)N3)cc1` [TR-G026, (E)-N'-(4-methoxybenzylidene)-2-((2-oxo-1,2,3,4-tetrahydroquinolin-6-yl)oxy)acetohydrazide] showed an activity at 10 µM [1] of 90%, an inhibition at 10 µM [1] of 10% and an activity at 10 µM (U87-MG human glioma cell) of 92%. For the same molecule, the inhibition at 10 µM (U87-MG human glioma cell) was 8%.

With `CC(=O)CCn1cc(COc2ccc3c(c2)CCC(=O)N3)nn1` [TR-G147, 6-((1-(3-oxobutyl)-1H-1,2,3-triazol-4-yl)methoxy)-3,4-dihydroquinolin-2(1H)-one] the activity at 10 µM [1] was 122%, the inhibition at 10 µM [1] was -22% and the activity at 10 µM (U87-MG human glioma cell) was 89%. For the same molecule, the inhibition at 10 µM (U87-MG human glioma cell) was 11%.

In the case of `C=CCOc1ccc2c(c1)CCC(=O)N2CC=C` [TR-G014A, 1-allyl-6-(allyloxy)-3,4-dihydroquinolin-2(1H)-one], the activity at 10 µM [1] is reported as 68%, the inhibition at 10 µM [1] is reported as 32% and the activity at 10 µM (U87-MG human glioma cell) is reported as 82%. The inhibition at 10 µM (U87-MG human glioma cell) was 19%.

With `C=CCOC(=O)N1C(=O)CCc2cc(OCCCCc3nnnn3C3CCCCC3)ccc21` [TR-G114, Allyl 6-(4-(1-cyclohexyl-1H-tetrazol-5-yl)butoxy)-2-oxo-3,4-dihydroquinoline-1(2H)-carboxylate] the activity at 10 µM [1] was 85%, the inhibition at 10 µM [1] was 15% and the activity at 10 µM (U87-MG human glioma cell) was 86%. For the same molecule, the inhibition at 10 µM (U87-MG human glioma cell) was 14%.

`CC(=O)c1ccc(NC(=O)COc2ccc3c(c2)CCC(=O)N3)cc1` [TR-G064, N-(4-acetylphenyl)-2-((2-oxo-1,2,3,4-tetrahydroquinolin-6-yl)oxy)acetamide] gave an activity at 10 µM [1] of 78%, an inhibition at 10 µM [1] of 22% and an activity at 10 µM (U87-MG human glioma cell) of 70%. It also gave an inhibition at 10 µM (U87-MG human glioma cell) of 30%.

Work on `CCCOc1ccc2c(c1)CCC(=O)N2` [TR-G068, 6-propoxy-3,4-dihydroquinolin-2(1H)-one] yielded an activity at 10 µM [1] of 82%, an inhibition at 10 µM [1] of 18% and an activity at 10 µM (U87-MG human glioma cell) of 59%. For the same molecule, the inhibition at 10 µM (U87-MG human glioma cell) was 42%.

In the case of `O=C1CCc2cc(OCCCN3C(=O)c4ccccc4C3=O)ccc2N1` [TR-G049, 2-(3-((2-oxo-1,2,3,4-tetrahydroquinolin-6-yl)oxy)propyl)isoindoline-1,3-dione], the “Cell Proliferation (%)” value [1] is reported as 63%, the inhibition at 10 µM [1] is reported as 37% and the “Cell Proliferation (%)” value (U87-MG human glioma cell) is reported as 76%. The inhibition at 10 µM (U87-MG human glioma cell) was 24%.

Molecule `O=C(COc1ccc2c(c1)CCC(=O)N2)Nc1ccc(Br)cc1` [TR-G123] has an activity at 10 µM [1] of 109%, an inhibition at 10 µM [1] of -9% and an activity at 10 µM (U87-MG human glioma cell) of 92%. The inhibition at 10 µM (U87-MG human glioma cell) was 8%.

`O=C(COc1ccc2c(c1)CCC(=O)N2)N/N=C/c1ccc(-c2ccccc2)cc1` [TR-G145, (E)-N'-([1,1'-biphenyl}-4-ylmethylene)-2-((2-oxo-1,2,3,4-tetrahydroquinolin-6-yl)oxy)acetohydrazide] gave an activity at 10 µM [1] of 59%, an inhibition at 10 µM [1] of 41% and an activity at 10 µM (U87-MG human glioma cell) of 49%. The inhibition at 10 µM (U87-MG human glioma cell) was 51%.
